Data on four compounds can be found in publication PMC3214178, “High-yield production of aromatic peroxygenase by the agaric fungus Marasmius rotula” (AMB Express, 2011).

What all share (assay type): biochemical
Test [1] concerns T1, MroAPO (Marasmius rotula aromatic peroxygenase).
T1 construct: native secreted heme-thiolate enzyme purified by FPLC from culture liquid of wild-type fungus
The experiment in a line: spectrophotometric initial rates, 1-naphthol at […] nm; Lineweaver-Burk. To be noted: H2O2 co-substrate (table note 2 mM; methods give start with 20 μl H2O2 (200 μM)), sodium phosphate/citrate buffer pH 5.5, acetonitrile as substrate solvent, 25°C.

For test [2] the test system is unchanged. Put plainly: spectrophotometric initial rates, dimeric DMP quinone at […] nm; Lineweaver-Burk. Conditions: 2 mM H2O2, sodium phosphate/citrate buffer pH 5.5, 25°C.
Test [3] shares this test system. Put plainly: spectrophotometric initial rates, ABTS cation radical at […] nm; Lineweaver-Burk. To be noted: 2 mM H2O2, sodium phosphate/citrate buffer pH 4.5, 25°C.
For test [4] the test system is unchanged. Put plainly: spectrophotometric initial rates, veratraldehyde at […] nm; Lineweaver-Burk. Conditions: 2 mM H2O2, sodium phosphate/citrate buffer pH 5.5, 25°C.

For orientation: Km means the substrate concentration at which the rate is half of its maximum.

For the compound `c1ccc2ccccc2c1` [Naphthalene], in test [1], the Km is 791 µM.

For the compound `COc1cccc(OC)c1O` [DMP], the Km in test [2] was found to be 133 µM.

On to `CCn1c(=NN=c2sc3cc(S(=O)(=O)O)ccc3n2CC)sc2cc(S(=O)(=O)O)ccc21` [ABTS], for which the Km in test [3] amounted to 71 µM.

Turning to `COc1ccc(CO)cc1OC` [Veratryl alcohol], the Km in test [4] stood at 279 µM.
